In PMC6187632, “A glutaredoxin domain fused to the radical-generating subunit of ribonucleotide reductase (RNR) functions as an efficient RNR reductant” (The Journal of Biological Chemistry, 2018):

Assays:
[1] = molecular target: T1, F. ignava NrdB (Grx::NrdB fusion protein, NrdBi) (Falseniella ignava, UniProt K1LAT4); experiment: glutaredoxin activity, NADPH consumption at […] nm (GSH reductase coupled); format: biochemical; conditions: 4 mM GSH, 0.4 mM NADPH, pH 8.0, room temperature; Grx domain; artificial substrate
T1 construct: gene HMPREF9707_01368; full-length 496-residue fusion (Grx 4-61, ATP cone 84-169, NrdB core); E. coli BL21(DE3); dimer-tetramer equilibrium

[2] = molecular target: T2, F. ignava NrdB (Grx::NrdB fusion protein, NrdBi) (Falseniella ignava, UniProt K1LAT4, C15S); experiment: as above; format: biochemical; conditions: 4 mM GSH, 0.4 mM NADPH, pH 8.0, room temperature; Grx domain, monothiol mechanism
T2 construct: gene HMPREF9707_01368; full-length 496-residue fusion (Grx 4-61, ATP cone 84-169, NrdB core); E. coli BL21(DE3); dimer-tetramer equilibrium

[3] = molecular target: T1, F. ignava NrdB (Grx::NrdB fusion protein, NrdBi); experiment: biochemical; format: binding
[4] = molecular target: T3, F. ignava RNR holoenzyme (NrdA + NrdB) (Falseniella ignava, UniProt K1LAT4); experiment: RNR activity; format: biochemical; conditions: weaker inhibition than dATP; ATP cone of NrdB
T3 construct: gene HMPREF9707_01368; E. coli BL21(DE3); active complex alpha2beta2; with Ribonucleoside-diphosphate reductase subunit alpha
T3 sequence (K1LAT4 1-496): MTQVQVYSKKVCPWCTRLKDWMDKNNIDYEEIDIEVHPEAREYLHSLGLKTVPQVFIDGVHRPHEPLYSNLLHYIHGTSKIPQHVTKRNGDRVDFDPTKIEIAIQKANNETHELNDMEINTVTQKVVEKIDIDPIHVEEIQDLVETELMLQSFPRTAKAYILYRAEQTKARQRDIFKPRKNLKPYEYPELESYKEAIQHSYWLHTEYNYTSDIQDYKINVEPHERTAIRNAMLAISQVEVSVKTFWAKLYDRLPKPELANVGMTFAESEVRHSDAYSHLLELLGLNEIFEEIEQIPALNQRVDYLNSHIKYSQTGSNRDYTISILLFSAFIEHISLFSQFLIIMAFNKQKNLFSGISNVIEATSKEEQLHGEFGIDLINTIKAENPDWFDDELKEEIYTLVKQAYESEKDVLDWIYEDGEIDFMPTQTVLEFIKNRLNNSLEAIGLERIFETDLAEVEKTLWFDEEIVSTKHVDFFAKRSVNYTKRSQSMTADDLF
T3 sequence (K1MC37 1-567 partner): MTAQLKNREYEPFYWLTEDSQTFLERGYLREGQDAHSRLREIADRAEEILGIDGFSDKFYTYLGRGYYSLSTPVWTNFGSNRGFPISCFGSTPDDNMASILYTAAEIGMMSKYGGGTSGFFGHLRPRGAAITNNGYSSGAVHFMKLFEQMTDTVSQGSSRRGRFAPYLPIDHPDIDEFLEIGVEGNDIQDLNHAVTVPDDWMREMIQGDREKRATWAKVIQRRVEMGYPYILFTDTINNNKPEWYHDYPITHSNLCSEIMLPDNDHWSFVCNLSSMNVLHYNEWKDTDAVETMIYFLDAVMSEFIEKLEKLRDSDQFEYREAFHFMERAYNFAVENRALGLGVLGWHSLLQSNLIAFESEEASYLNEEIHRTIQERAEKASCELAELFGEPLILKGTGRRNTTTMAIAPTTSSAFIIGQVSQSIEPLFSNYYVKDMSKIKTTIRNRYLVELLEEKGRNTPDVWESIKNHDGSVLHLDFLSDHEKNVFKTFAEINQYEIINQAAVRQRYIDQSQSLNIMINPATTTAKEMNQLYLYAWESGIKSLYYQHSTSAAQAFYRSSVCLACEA

[5] = molecular target: T3, F. ignava RNR holoenzyme (NrdA + NrdB); experiment: RNR activity (dGDP formation by HPLC); format: biochemical
[6] = molecular target: T4, heterologous F. ignava NrdA/L. blandensis NrdB holoenzyme (Leeuwenhoekiella blandensis, UniProt A3XHF9); experiment: RNR activity (dGDP formation by HPLC); format: biochemical; conditions: GDP substrate, 2 mM dTTP, pH 8, room temperature; allosteric inhibition via L. blandensis NrdB ATP cone
T4 construct: gene MED217_17135; mixed-species complex; F. ignava NrdA His6-tagged, E. coli; with Ribonucleoside-diphosphate reductase subunit alpha (Falseniella ignava CCUG 37419)
T4 sequence (A3XHF9 1-427): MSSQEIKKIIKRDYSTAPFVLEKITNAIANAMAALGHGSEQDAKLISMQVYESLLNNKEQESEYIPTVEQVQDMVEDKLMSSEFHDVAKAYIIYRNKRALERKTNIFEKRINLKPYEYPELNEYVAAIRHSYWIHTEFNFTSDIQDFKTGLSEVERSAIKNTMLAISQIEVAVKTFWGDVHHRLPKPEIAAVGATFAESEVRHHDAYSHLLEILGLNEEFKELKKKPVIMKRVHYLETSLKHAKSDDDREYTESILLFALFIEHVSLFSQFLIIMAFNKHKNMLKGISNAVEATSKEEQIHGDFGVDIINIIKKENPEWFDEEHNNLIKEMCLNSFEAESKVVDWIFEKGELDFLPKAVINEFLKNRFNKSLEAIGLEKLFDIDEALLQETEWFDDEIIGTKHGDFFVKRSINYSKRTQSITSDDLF
T4 sequence (K1MC37 1-567 partner): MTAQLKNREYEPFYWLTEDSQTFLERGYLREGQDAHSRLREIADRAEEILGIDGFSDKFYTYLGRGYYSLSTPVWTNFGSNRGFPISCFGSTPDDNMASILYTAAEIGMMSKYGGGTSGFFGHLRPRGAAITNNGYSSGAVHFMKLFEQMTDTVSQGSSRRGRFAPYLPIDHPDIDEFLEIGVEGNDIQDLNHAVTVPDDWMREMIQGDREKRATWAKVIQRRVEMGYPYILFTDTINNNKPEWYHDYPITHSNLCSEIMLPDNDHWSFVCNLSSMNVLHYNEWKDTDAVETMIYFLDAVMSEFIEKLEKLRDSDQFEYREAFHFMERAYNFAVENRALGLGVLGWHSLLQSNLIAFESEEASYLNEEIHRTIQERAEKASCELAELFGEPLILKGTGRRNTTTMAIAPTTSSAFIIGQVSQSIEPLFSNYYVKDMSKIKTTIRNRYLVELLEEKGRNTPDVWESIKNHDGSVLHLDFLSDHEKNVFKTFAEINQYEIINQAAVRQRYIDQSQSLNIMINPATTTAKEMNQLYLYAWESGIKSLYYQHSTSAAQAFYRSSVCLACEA

[7] = molecular target: Facklamia ignava NrdBΔGrx (NrdB lacking the Grx domain) (Facklamia ignava); experiment: GEMMA (gas-phase electrophoretic macromolecule analysis); NrdB deletion proteins analysed with and without 50 uM dATP (the text does not tell the two conditions apart); 20 mM ammonium acetate pH 7.8, 1 mM DTT, 0.005% Tween 20; step: dimers to tetramer
[8] = molecular target: the molecule itself; experiment: SEC; Superdex 200 10/300, 0.1 mM dATP in the mobile phase; 50 mM KCl, 10 mM MgCl2, 0.1 mM DTT, 50 mM Tris-HCl pH 7.6, room temperature; single subunits 5 and 10 uM, mixture 10 and 20 uM of each
[9] = molecular target: the molecule itself; experiment: GEMMA (gas-phase electrophoretic macromolecule analysis); no effector; 0.05 mg/ml protein (0.025 mg/ml of each in mixtures), 20 mM ammonium acetate pH 7.8, 1 mM DTT, 0.005% Tween 20, room temperature
[10] = molecular target: the molecule itself; experiment: SEC; Superdex 200 10/300, no effector; 50 mM KCl, 10 mM MgCl2, 0.1 mM DTT, 50 mM Tris-HCl pH 7.6, room temperature; NrdA 5 and 10 uM, NrdB 1.25-10 uM, mixture 10 uM of each

What does the source list for `OCCSSCCO` [2-hydroxyethyl disulfide]?
Km [1]: 600 ± 90 µM; Km [2]: 1300 ± 240 µM

Which Kd [3] does the source give for `Nc1ncnc2c1ncn2[C@@H]1O[C@H](COP(=O)(O)OP(=O)(O)OP(=O)(O)O)[C@@H](O)[C@H]1O` [ATP] here?
The Kd was 6.8 µM.

For `Nc1ncnc2c1ncn2[C@H]1C[C@H](O)[C@@H](COP(=O)(O)OP(=O)(O)O)O1` [dADP], which Kd [3] is on record?
Its Kd is 5.8 µM.

What about the RNR activity [4] of the same molecule?
Its RNR activity is “Titration with dADP inhibited the WT enzyme activity (Fig. S2)”.

What does the source list for `Nc1ncnc2c1ncn2[C@H]1C[C@H](O)[C@@H](COP(=O)(O)OP(=O)(O)OP(=O)(O)O)O1` [dATP]?
Ki [5]: 1.3 ± 0.23 µM; Kd [3]: 0.4 µM; Ki [6]: ~70 µM

For “Facklamia ignava NrdBΔGrx (NrdB lacking the Grx domain) (domain or fragment)”, which stoichiometry N [7] is on record?
The stoichiometry N was 4.

B1: Facklamia ignava NrdB (Grx::ATP-cone::NrdB fusion protein, NrdBi) (enzyme, UniProt K1LAT4 1-496, looked up)
chain: MTQVQVYSKKVCPWCTRLKDWMDKNNIDYEEIDIEVHPEAREYLHSLGLKTVPQVFIDGVHRPHEPLYSNLLHYIHGTSKIPQHVTKRNGDRVDFDPTKIEIAIQKANNETHELNDMEINTVTQKVVEKIDIDPIHVEEIQDLVETELMLQSFPRTAKAYILYRAEQTKARQRDIFKPRKNLKPYEYPELESYKEAIQHSYWLHTEYNYTSDIQDYKINVEPHERTAIRNAMLAISQVEVSVKTFWAKLYDRLPKPELANVGMTFAESEVRHSDAYSHLLELLGLNEIFEEIEQIPALNQRVDYLNSHIKYSQTGSNRDYTISILLFSAFIEHISLFSQFLIIMAFNKQKNLFSGISNVIEATSKEEQLHGEFGIDLINTIKAENPDWFDDELKEEIYTLVKQAYESEKDVLDWIYEDGEIDFMPTQTVLEFIKNRLNNSLEAIGLERIFETDLAEVEKTLWFDEEIVSTKHVDFFAKRSVNYTKRSQSMTADDLF
notes: NrdB (NrdBi) of Facklamia ignava CCUG 37419, 496 residues: Grx domain (residues 4-61), ATP cone (residues 84-169), then the NrdB proper; amplified from genomic DNA with primers from the start ATG to the stop codon; a thrombin cleavage site follows the His6 tag; Expressed with 0.5 mM MnSO4; holds a Mn(III)/Mn(IV) cofactor; Dimer or tetramer by condition; also called WT NrdB; source: E. coli …
With B1 as the molecule, how does the “stoichiometry N” value [8] read?
The value was 4.

And the “stoichiometry N” value [9]?
The value was 2.

B2: Facklamia ignava NrdA (NrdAi) (enzyme, UniProt K1MC37 1-567, looked up)
chain: MTAQLKNREYEPFYWLTEDSQTFLERGYLREGQDAHSRLREIADRAEEILGIDGFSDKFYTYLGRGYYSLSTPVWTNFGSNRGFPISCFGSTPDDNMASILYTAAEIGMMSKYGGGTSGFFGHLRPRGAAITNNGYSSGAVHFMKLFEQMTDTVSQGSSRRGRFAPYLPIDHPDIDEFLEIGVEGNDIQDLNHAVTVPDDWMREMIQGDREKRATWAKVIQRRVEMGYPYILFTDTINNNKPEWYHDYPITHSNLCSEIMLPDNDHWSFVCNLSSMNVLHYNEWKDTDAVETMIYFLDAVMSEFIEKLEKLRDSDQFEYREAFHFMERAYNFAVENRALGLGVLGWHSLLQSNLIAFESEEASYLNEEIHRTIQERAEKASCELAELFGEPLILKGTGRRNTTTMAIAPTTSSAFIIGQVSQSIEPLFSNYYVKDMSKIKTTIRNRYLVELLEEKGRNTPDVWESIKNHDGSVLHLDFLSDHEKNVFKTFAEINQYEIINQAAVRQRYIDQSQSLNIMINPATTTAKEMNQLYLYAWESGIKSLYYQHSTSAAQAFYRSSVCLACEA
notes: NrdA (NrdAi), catalytic subunit of the class I ribonucleotide reductase of Facklamia ignava CCUG 37419; amplified from genomic DNA with primers from the start ATG to the stop codon; a thrombin cleavage site follows the His6 tag; the form rests on the printed primers (ATG to stop); source: E. coli BL21(DE3), pET-28a(+), purified (HisTrap nickel-Sepharose, Superdex 200, phenyl-Sepharose)
With B2 as the molecule, how does the “stoichiometry N” value [10] read?
Its value is 2.
